Reference: ChEMBL document CHEMBL1201862, “PubChem BioAssay data set” (2004)
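Five compound concentrations were applied to cells in 96-well plates for 48 hours; endpoints were derived by simple linear interpolation of the resulting dose-response curve. GI50 = concentration required for 50% inhibition of growth.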 The source made the active and inactive calls. Rule as the data show it: active = GI50 up to about 1.1 µM and inactive = higher.

Columns and labels:
Test in all cases: NCI tumour cell line growth inhibition, 48 h
[1] = test system: NCI/ADR-RES
[2] = test system: K562
[3] = test system: OVCAR-4
[4] = test system: MDA-MB-435
[5] = test system: COLO 205
[6] = test system: HCT-15
[7] = test system: HL-60
[8] = test system: KM12
[9] = test system: SW-620
[10] = test system: T47D
[11] = test system: M14
[12] = test system: ACHN
[13] = test system: UACC-62
[14] = test system: CCRF-CEM
[15] = test system: SF-295
[16] = test system: SF-539
[17] = test system: HT-29
[18] = test system: SF-268
[19] = test system: NCI-H522
[20] = test system: NCI-H226
[21] = test system: OVCAR-5
[22] = test system: HCT-116
[23] = test system: EKVX
[24] = test system: Hs-578T
[25] = test system: U-251
[26] = test system: RPMI-8226
[27] = test system: IGROV-1
[28] = test system: RXF 393
[29] = test system: SK-MEL-2
[30] = test system: DU-145
[31] = test system: LOX IMVI
[32] = test system: A549
[33] = test system: SNB-19
[34] = test system: MDA-MB-231
[35] = test system: NCI-H23
[36] = test system: HOP-62
[37] = test system: MOLT-4
[38] = test system: SK-MEL-28
[39] = test system: A498
[40] = test system: MDA-N
[41] = test system: HCC 2998
[42] = test system: CAKI-1
[43] = test system: SN12C
[44] = test system: SR
[45] = test system: 786-0
[46] = test system: OVCAR-3
[47] = test system: PC-3
[48] = test system: SNB-75
[49] = test system: NCI-H460
[50] = test system: SK-MEL-5
[51] = test system: HOP-92
[52] = test system: Malme-3M
[53] = test system: SK-OV-3
[54] = test system: TK-10
[55] = test system: UO-31

Measured: GI50

CN(C)/N=C1/CCC(C(F)(F)F)(C(F)(F)F)O1
41.4 µM: [6]
inactive: [1] 26.6 µM | [2] 40.7 µM | [3] 47.6 µM | [4] 27.5 µM | [5] 16.7 µM | [7] 28.3 µM | [8] 20.7 µM | [9] 40.6 µM | [10] 33.2 µM | [11] 25.1 µM | [12] 35.6 µM | [13] 28.1 µM | [14] 30.2 µM | [15] 39.5 µM | [16] 45.4 µM | [17] 41.8 µM | [18] 43.5 µM | [19] 35.2 µM | [20] 26.3 µM | [21] 58.1 µM | [22] 29.7 µM | [23] 36.9 µM | [24] 39.2 µM | [25] 39 µM | [26] 31.5 µM | [27] 31.2 µM | [28] 32.6 µM | [29] 20.7 µM | [30] 47 µM | [31] 33.6 µM | [32] 37.5 µM | [33] 41.8 µM | [34] 25.4 µM | [35] 37.4 µM | [36] 31.4 µM | [37] 37.2 µM | [38] 39.6 µM | [39] 21.4 µM | [40] 48.3 µM | [41] 30.6 µM | [42] 41 µM | [43] 27.8 µM | [44] 17.6 µM | [45] 29.4 µM | [46] 18.5 µM | [47] 28.9 µM | [48] 26.3 µM | [49] 41 µM | [50] 21.9 µM | [51] 32.7 µM | [52] 23.3 µM | [53] 38.3 µM | [54] 51.4 µM | [55] 28.4 µM
